Measured values reported in ChEMBL document CHEMBL1157764, “Conserved high activity binding peptides are involved in adhesion of two detergent-resistant membrane-associated merozoite proteins to red blood cells during invasion” (J Med Chem, 2010).

Species on record: Homo sapiens
Assay: Binding affinity to RBC membrane receptor in human RBCs assessed as specific binding activity measured as ratio of specifically bound peptide/added peptide by gamma counter

Activity [%] | SMILES
> 2 | CC[C@H](C)[C@H](NC(=O)[C@@H]1CCCN1C(=O)[C@H](Cc1ccccc1)NC(=O)[C@H](Cc1cnc[nH]1)NC(=O)[C@H](Cc1ccccc1)NC(=O)[C@H](CCC(N)=O)NC(=O)[C@@H](NC(=O)[C@H](CCC(=O)O)NC(=O)[C@@H](NC(=O)[C@H](Cc1ccc(O)cc1)NC(=O)[C@H](CC(=O)O)NC(=O)[C@H](CCC(=O)O)NC(=O)[C@@H](N)CC(C)C)C(C)C)C(C)C)C(=O)N[C@@H](Cc1ccc(O)cc1)C(=O)N[C@@H](Cc1ccc(O)cc1)C(=O)N[C@H](C(=O)N[C@@H](CCCCN)C(=O)N[C@@H](Cc1ccccc1)C(=O)N[C@@H](CC(C)C)C(=O)N[C@@H](Cc1ccc(O)cc1)C(=O)O)[C@H](C)O
> 2 | CC[C@H](C)[C@H](NC(=O)[C@H](CC(=O)O)NC(=O)[C@H](CCCCN)NC(=O)[C@H](CCCNC(=N)N)NC(=O)[C@H](Cc1ccccc1)NC(=O)[C@H](CCCNC(=N)N)NC(=O)[C@@H](NC(=O)[C@@H](NC(=O)[C@@H]1CCCN1C(=O)[C@H](CC(C)C)NC(=O)CN)[C@H](C)O)[C@@H](C)CC)C(=O)N[C@@H](CO)C(=O)N[C@H](C(=O)N[C@@H](CCC(=O)O)C(=O)N[C@@H](CC(N)=O)C(=O)N[C@@H](CC(C)C)C(=O)N[C@H](C(=O)N[C@@H](Cc1ccc(O)cc1)C(=O)N[C@@H](CC(C)C)C(=O)N[C@@H](CC(N)=O)C(=O)O)[C@@H](C)O)C(C)C
> 2 | CC[C@H](C)[C@H](NC(=O)[C@H](CCCCN)NC(=O)[C@@H](NC(=O)[C@H](Cc1ccc(O)cc1)NC(=O)CNC(=O)[C@H](CCC(=O)O)NC(=O)[C@H](CC(=O)O)NC(=O)[C@H](CO)NC(=O)[C@H](Cc1ccc(O)cc1)NC(=O)[C@H](CC(C)C)NC(=O)[C@H](CC(N)=O)NC(=O)[C@H](CCSC)NC(=O)[C@@H](NC(=O)[C@H](CCC(C)=O)NC(=O)[C@H](CC(N)=O)NC(=O)[C@H](CCCCN)NC(=O)[C@@H](N)Cc1c[nH]c2ccccc12)C(C)C)[C@@H](C)O)C(=O)N[C@@H](CC(N)=O)C(=O)N[C@H](C(=O)N[C@@H](CC(C)C)C(=O)O)[C@@H](C)O
> 2 | CC[C@H](C)[C@H](NC(=O)[C@H](CCCCN)NC(=O)[C@H](CCCNC(=N)N)NC(=O)[C@@H]1CCCN1C(=O)[C@@H](NC(=O)[C@@H](NC(=O)[C@H](CCCCN)NC(=O)[C@@H](NC(=O)[C@H](CCCCN)NC(=O)[C@@H](NC(=O)[C@@H](NC(=O)[C@@H](N)Cc1ccc(O)cc1)C(C)C)[C@@H](C)CC)[C@@H](C)CC)[C@@H](C)O)C(C)C)C(=O)N[C@@H](CCC(N)=O)C(=O)N[C@@H](CS)C(=O)N[C@@H](CCC(=O)O)C(=O)N[C@@H](CC(C)C)C(=O)N[C@@H](CC(N)=O)C(=O)N[C@H](C(=O)N[C@@H](CC(N)=O)C(=O)N[C@@H](CC(=O)O)C(=O)O)[C@@H](C)O
> 2 | CC[C@H](C)[C@H](NC(=O)[C@H](CO)NC(=O)[C@H](CCCNC(=N)N)NC(=O)[C@@H](NC(=O)[C@@H](NC(=O)[C@@H](N)CCC(N)=O)[C@@H](C)O)[C@@H](C)CC)C(=O)N[C@@H](C(=O)N[C@@H](CC(C)C)C(=O)N[C@@H](CC(C)C)C(=O)N[C@@H](CS)C(=O)N[C@@H](CO)C(=O)N[C@@H](CC(N)=O)C(=O)N[C@@H](CC(C)C)C(=O)N[C@@H](Cc1cnc[nH]1)C(=O)N[C@@H](CC(=O)O)C(=O)N[C@@H](Cc1c[nH]c2ccccc12)C(=O)N[C@@H](CCCCN)C(=O)N[C@@H](CC(C)C)C(=O)N[C@@H](Cc1ccccc1)C(=O)N[C@@H](CS)C(=O)N[C@@H](Cc1ccc(O)cc1)C(=O)O)[C@@H](C)CC
> 2 | CC[C@H](NC(=O)[C@H](CC(C)C)NC(=O)[C@H](CCCCN)NC(=O)[C@H](CC(N)=O)NC(=O)[C@H](CC(N)=O)NC(=O)[C@H](Cc1ccc(O)cc1)NC(=O)[C@@H](NC(=O)[C@H](Cc1ccc(O)cc1)NC(=O)[C@H](CCCCN)NC(=O)[C@H](Cc1ccc(O)cc1)NC(=O)[C@@H](NC(=O)[C@H](Cc1ccc(O)cc1)NC(=O)[C@@H](NC(=O)[C@H](Cc1ccc(O)cc1)NC(=O)[C@@H](NC(=O)[C@H](CCCCN)NC(=O)[C@H](CC(N)=O)NC(=O)[C@@H](NC(=O)[C@@H](N)[C@@H](C)O)C(C)C)[C@@H](C)CC)[C@@H](C)O)[C@@H](C)O)[C@@H](C)CC)C(=O)N[C@@H](C)C(=O)O
